Counter-ions that a name gives are not always drawn.

Series [1] relates to cortical neurons cultured from wild-type mice. The series is described as follows: Immunoblotting analysis of various proteins in cultured cortical neurons (U18666A-induced changes). It counts as cell-based. Particulars: for RhoA level (immunoblot) / Ubiquitin level (immunoblot) / p-4EBP1 level (immunoblot) / p-LIMK level (immunoblot) / p-Mdm2 level (immunoblot) / p-p38 level (immunoblot) / p-p53Δ level (immunoblot) / t-p38 level (immunoblot) / t-p53 level (immunoblot): DIV4 cortical neurons from wild-type mice, 5 μM U18666A, inhibitor pre-treatment 1 μM, DMSO = 100, n = 3-6. As to the method: (§1) Neuronal cultures. Cortical and hippocampal neurons were prepared from npc1+/+ and npc1−/− embryos at embryonic day 18 (E18); time-pregnant wild-type BALB/c or npc1+/− mice were obtained either from Charles River Laboratories (San Diego, Calif.) or from our breeding colony respectively. Neurons were cultured in NeuroBasal (GIBCO, Carlsbad, Calif.) with 10% bovine serum albumin (BSA), 2% B27, and 1% glutamine for three to four days before being used.
(§2) Treatment. For primary cultured neurons, chemicals (U18666A and inhibitors of various enzymes) were first dissolved in 10% DMSO before being diluted in cultured medium; final DMSO concentration was lower than 0.01%. For in vivo treatment, hydroxyfasudil monohydrochloride (Sigma) was dissolved in double-distilled H2O and injected subcutaneously at 10 mg/kg, twice a day from postnatal day 7 to day 28.
Immunoprecipitation and immunoblotting procedures. For immunoprecipitation, cultured cortical neurons were lysed in lysis buffer [0.05 M Tris base, 0.9% NaCl, pH 7.6, and 0.5% Triton X-100 plus Protease Inhibitors Cocktail (1:100; EMD Biosciences) and phosphatase inhibitor cocktails (1:500; Sigma)]. Lysates were centrifuged at 16,000×g for 30 min at 4° C. Supernatant were then cleared with a mixture of protein A/Gagarose beads (each 50%) for 1 h at 4 uC, and after a brief spin, pellets were discarded. A small portion of the supernatants was used as input. The reminder of the supernatant was immunoprecipitated overnight with control IgG or Tau1 antibodies. Immunoprecipitates were captured by incubation with protein A/G-agarose beads for 3 h at 4° C. After several washes, the beads were resuspended in 2×SDS sample buffer [4% sodium dodecyl sulfate (SDS), 100 mM Tris-HCl (pH 6.8), 10% b-mercaptoethanol, 20% glycerol and 0.2% bromophenol blue] and boiled for 10 min. The resulting proteins were separated by SDS-PAGE, and transferred to polyvinylidene difluoride membranes for immunoblotting using previously described protocols.
Because the p-p53Δ and p-p53 bands were very close in immunoblots and the former was the predominant band, p-p53Δ levels were used as an index of p-p53 degradation. Immunoprecipitation was used to determine whether p-p53 truncation affected its association with the microtubule-associated protein tau, a protein that is abundantly and exclusively expressed in axons. p53 labeled by either anti-p-p53 or anti-p53 antibodies was immunoprecipitated by Tau1 antibodies (FIG. 5B).
Increased levels of p-p53Δ and p-Mdm2 were quantified using the ImageJ program (National Institutes of Health, Bethesda, Md.). The quantified levels are contained in Table 1 below.
Background: A western blot detects proteins with antibodies after separation by electrophoresis.

The subject of series [2] is hippocampal neurons cultured from wild-type mice. The series can be described thus: Quantification of growth cone collapse in cultured neurons from wild-type mice (U18666A-induced). Format: cell-based. The procedure:
as §1, §2
(§3) Immunofluorescent staining. Hippocampal neurons were fixed with 4% paraformaldehyde in phosphate buffer (PB; pH 7.4) for 15 min. After washing with 1× phosphate buffer saline (PBS), cells were permeabilized with 0.05% Triton X-100 in 1×PBS for 15 min, and incubated with blocking buffer (3% BSA, 0.02% Triton X-100 in 1×PBS) for 15 min before being probed with primary antibodies. The following primary antibodies were used: anti-E6AP (1:1000), anti-phospho-p53 (1:250), anti-phospho-4EBP1 (1:1000), antiphospho-Mdm2 antibody (1:250), anti-phospho-p38 antibody (1:250), anti-RhoA antibody (1:1500). All primary antibodies were diluted in blocking buffer and incubated at 4° C. for 18 h. After six washes (6×10 min) with 1×PBS at room temperature, cells were incubated with secondary antibodies, Alexa488-anti-rabbit (1:500) or Alexa594-anti-mouse (1:500); both antibodies were diluted in blocking buffer and incubated at room temperature for one h. Cells were then washed with 1×PBS (6×10 min) and sealed with mounting medium (Vectashield; Vector Laboratories, Inc., Burlingame, Calif.) containing 49,69-diamidino-2-phenylindole (DAPI) to stain nuclei. Immunofluorescent signal was detected with a Nikon confocal microscope (Nikon TE 2000U with DEclipse C1 system; Melville, N.Y.).
(§4) Quantification of growth cone morphology and immunoreactivity. Confocal images were taken using the 60× oil-immersion objective. About 20-30 images were randomly selected from each culture dish (20 mm in diameter); at least four to six dishes from three to six independent culture preparations/experiments were used for each experimental group. Within an experiment, cultures used for different experimental groups and designed for comparison were stained simultaneously and imaged with the same acquisition parameters. Quantification was done blindly by multiple researchers. Growth cones with less than 1 filopodium were considered collapsed; 100 growth cones were-quantified for each experimental group. Image J software was used to quantify immunoreactivity intensity of p-p53 and RhoA in axons and growth cones; the “total integrated density” was used instead of “average intensity”. Briefly, individual growth cones were outlined manually and the total integrated density was measured using Image J software. For quantification of immunoreactivity in axons, a 50 μm fragment of axons from the neck of growth cones towards the cell body was selected and integrated density measured.

Series [3] has as its system axons and growth cones of hippocampal neurons from wild-type mice. The series can be described thus: Immunofluorescence quantification of protein levels in axons and growth cones of wild-type hippocampal neurons. Format: cell-based. The procedure:
as §1, §2, §3, §4

The next series relates to npc1−/− mice. The series is described as follows: In vivo ROCK inhibition in developing npc1−/− mice, immunohistochemistry of brain sections. The note with it: 10 mg/kg subcutaneously twice a day, postnatal day 7 to 28. As to the method:
Animals. A breeding colony of Npc1″ heterozygous mice that were on a BALB/c background (Jackson Laboratory, Bar Harbor, Me.) was established in order breed wild type (npc+/+) and npc1−/− mice. The genotype of the mice was determined by employing a polymerase chain reaction (PCR)-based method as described in reference. The Institutional Animal Care and Use Committee (IACUC) of Western University of Health Sciences approved the care and experimental protocols that these examples describe. The National Institutes of Health Guide for the Care and Use of Laboratory Animals and Animal Husbandry governed the use of animals by the inventors.
as §2
Perfusion and Immunohistochemistry. Mice were perfused with freshly prepared 4% paraformaldehyde in 1×PBS. Brains were then removed and post-fixed in 4% paraformaldehyde for 16 h followed by incubation with graded sucrose solutions. Brains were sectioned into 30 μm coronal sections with a microtome. Floating sections were processed for immunostaining as described previously. Briefly, sections were incubated with rabbit anti-p-p53 (1:250) and mouse anti-pan axonal neurofilament (SMI-312, 1:500; Covance) antibodies in 5% horse serum diluted in 0.1M PB overnight at 4° C. […] Quantification of p-p53 and neurofilament immunoreactivity in fasciculated bundles in the striatum was performed by using NIH ImageJ software. […] Analyzed area consisted of 450 μm×420 μm that was taken from two sections per mouse; three different mice were used for each experimental group. Means of integrated density and areas were quantified and expressed as percentage of values from npc1+/+ mice.

The conditions of series [4]: reference [26]; cited from earlier work.
[5] abbreviates: immunohistochemical analysis, mean±SEM, n=25-40, Mdm2 inhibitor 1 μM.
The mark [6] stands for this setting: wild-type cortical neurons treated with pifithrin-μ.
The mark [7] stands for this setting: 1 μM SB203580 pre-treatment, immunohistochemistry.

As to `Bc1ccc(C(=O)/C=C/c2ccc(I)cc2)cc1` [Mdm2-In, trans-4-Iodo, 49-boranyl-chalcone], in series [1], the “RhoA level (immunoblot)” value came out at 105 ± 1, the “Ubiquitin level (immunoblot)” value is recorded as 102 ± 5, the “p-4EBP1 level (immunoblot)” value stood at 104 ± 2 and the “p-LIMK level (immunoblot)” value is 117 ± 6. Moreover, in series [1], the “p-Mdm2 level (immunoblot)” value stood at 100 ± 4, the “p-p38 level (immunoblot)” value is given as 108 ± 17, the “p-p53Δ level (immunoblot)” value came to 106 ± 2 and the “t-p38 level (immunoblot)” value was 104 ± 0. Moreover, in series [1], the “t-p53 level (immunoblot)” value came out at 104 ± 1. Also, the “effect on U18666A-induced growth cone collapse” value in series [2] (pretreatment with 1 μM Mdm2-in, n=100 growth cones) is on record as “significantly reduced”. For the same compound, the “effect on U18666A-induced decrease in p-p53 levels in axons and growth cones” value in series [3] (Mdm2 inhibitor pre-treatment (1 μM), n=25-40 neurons) is “significantly reduced”. Moreover, in series [3] (setting [5]), the “RhoA levels in axons, percentage of control vehicle-treated neurons” value is 102±15% and the “RhoA levels in growth cones, percentage of control vehicle-treated neurons” value came to 136±20%.
Take `Cc1cncc2cccc(S(=O)(=O)N3CCCNC[C@@H]3C)c12.Cl.Cl` [H 1152, (S)-(+)-2-Methyl-1-[(4-methyl-5-isoquinolinyl)sulfonyl]-hexahydro-1H-1,4-diazepine dihydrochloride]: the “effect on U18666A-induced growth cone collapse” value in series [2] (pre-treatment with 100 nM H 1152 for 3 h, then 5 μM U18666A for 2 min) is “blocked”. In addition, the “effect on U18666A-induced decrease in p-p53 immunoreactivity” value in series [3] (100 nM H 1152 for 3 h, then 5 μM U18666A 2 min) was “blocked”.
In the case of `CC[C@H]1CN2CCc3cc(OC)c(OC)cc3[C@@H]2C[C@@H]1C[C@H]1NCCc2cc(OC)c(OC)cc21` [emetine], in series [1] (emetine pretreatment), the “effect on U18666A-induced phosphorylation of LIMK” value is “significantly reduced”; the “effect on pifithrin-μ-induced increase in RhoA and p-LIMK” value is on record as “blocked”. For the same compound, the “effect on U18666A-induced changes in levels of p-Mdm2, p-p38 and p-p53Δ” value in series [1] (emetine treatment) is “did not affect”. For the same compound, the “effect on U18666A-induced increase in RhoA levels” value in series [1] (pre-treatment with emetine) is recorded as “significantly reduced”. In series [2] (emetine pretreatment, FIG. 15C legend: cortical neurons, n=100 growth cones), the “effect on U18666A-induced growth cone collapse” value is on record as “significantly reduced”.
With `NS(=O)(=O)C#Cc1ccccc1` [pifithrin-μ], in series [1] (setting [6]), the “levels of RhoA and p-LIMK (immunoblot)” value was “rapid increase”; the “levels of p-4EBP1” value is “increased”.
For the compound `O=c1[nH]ccc2c(S(=O)(=O)N3CCCNCC3)cccc12` [hydroxyfasudil monohydrochloride], in the series with npc1−/− mice, the SMI-312-immunopositive areas result was “significantly increased”; the “number of axonal neurofilaments (SMI-312 staining), especially corpus callosum and striatum” value is reported as “increased”; the “p-p53 immunoreactivity in brain sections” value is reported as “increased”. In series [4], the blood-brain-barrier crossing entry is “cross the blood-brain-barrier” and the ischemia-induced brain damage entry is “reduce ischemia-induced brain damage”.
As for `C[S+]([O-])c1ccc(-c2nc(-c3ccncc3)c(-c3ccc(F)cc3)[nH]2)cc1` (stereo not drawn) [SB203580], in series [1], the “RhoA level (immunoblot)” value is reported as 96 ± 0, the “Ubiquitin level (immunoblot)” value is 95 ± 7, the “p-4EBP1 level (immunoblot)” value is given as 99 ± 3 and the “p-LIMK level (immunoblot)” value is listed as 100 ± 3. Further, in series [1], the “p-Mdm2 level (immunoblot)” value was found to be 92 ± 1, the “p-p38 level (immunoblot)” value is listed as 96 ± 24, the “p-p53Δ level (immunoblot)” value worked out at 94 ± 6 and the “t-p38 level (immunoblot)” value is given as 99 ± 5. Besides, the “t-p53 level (immunoblot)” value in series [1] is reported as 107 ± 2. The “effect on U18666A-induced growth cone collapse” value in series [2] (preincubation with 1 μM SB203580 for 2 h before U18666A) is “significantly reduced”. Further, in series [3] (setting [7]), the “effect on U18666A-induced RhoA increase in axons and growth cones” value is reported as “blocking effects”; the “effect on U18666A-induced p-p53 truncation in axons and growth cones” value is “blocking effects”.

The record behind these values is US20120010196A1, “METHODS OF TREATING NEURODEGENERATIVE DISORDERS AND DISEASES” (priority 2010, published 2012).
